Reference: ChEMBL document CHEMBL5303573, “Mapping human microbiome drug metabolism by gut bacteria and their genes” (Nature, 2019)

How the values were obtained:
[1] = The drug is tested on Eubacterium hallii strain: DSM3353 for biotransformation. The drug concentrations were measured before and after a 12-h incubation by liquid-chromatography-coupled mass spectrometry (LC–MS); settings: anaerobutyricum hallii, 2 µM
[2] = bifidobacterium adolescentis, 12 h, 2 µM
Description: The drug is tested on Bifidobacterium adolescentis strain: ATCC 15703 for biotransformation. The drug concentrations were measured before and after a 12-h incubation by liquid-chromatography-coupled mass spectrometry (LC–MS)

[3] = The drug is tested on Blautia hansenii strain: DSM20583 for biotransformation. The drug concentrations were measured before and after a 12-h incubation by liquid-chromatography-coupled mass spectrometry (LC–MS); settings: 2 µM
[4] = The drug is tested on Edwardsiella tarda strain: ATCC23685 for biotransformation. The drug concentrations were measured before and after a 12-h incubation by liquid-chromatography-coupled mass spectrometry (LC–MS); settings: 2 µM
[5] = The drug is tested on Bacteroides sp. WH2 strain: WH2 for biotransformation. The drug concentrations were measured before and after a 12-h incubation by liquid-chromatography-coupled mass spectrometry (LC–MS); settings: bacteroides sp. wh2, 12 h, 2 µM
[6] = The drug is tested on Bacteroides fragilis strain: ATCC43859 for biotransformation. The drug concentrations were measured before and after a 12-h incubation by liquid-chromatography-coupled mass spectrometry (LC–MS); settings: 2 µM
[7] = The drug is tested on Eubacterium ventriosum strain: ATCC27560 for biotransformation. The drug concentrations were measured before and after a 12-h incubation by liquid-chromatography-coupled mass spectrometry (LC–MS); type: ADME; parameters: dose 2 uM, timepoint 0 vs 12 hours; settings: 2 µM
[8] = The drug is tested on Bacteroides pectinophilus strain: ATCC43243 for biotransformation. The drug concentrations were measured before and after a 12-h incubation by liquid-chromatography-coupled mass spectrometry (LC–MS); settings: 2 µM
[9] = The drug is tested on Providencia stuartii strain: ATCC25827 for biotransformation. The drug concentrations were measured before and after a 12-h incubation by liquid-chromatography-coupled mass spectrometry (LC–MS); settings: 2 µM
[10] = bacteroides thetaiotaomicron, 12 h, 2 µM
Description: The drug is tested on Bacteroides thetaiotaomicron strain: 3731 for biotransformation. The drug concentrations were measured before and after a 12-h incubation by liquid-chromatography-coupled mass spectrometry (LC–MS)

[11] = bacteroides fragilis, 12 h, 2 µM
Description: The drug is tested on Bacteroides fragilis strain: NCTC 9343 for biotransformation. The drug concentrations were measured before and after a 12-h incubation by liquid-chromatography-coupled mass spectrometry (LC–MS)

[12] = The drug is tested on Collinsella intestinalis strain: DSM13280 for biotransformation. The drug concentrations were measured before and after a 12-h incubation by liquid-chromatography-coupled mass spectrometry (LC–MS); settings: 2 µM
[13] = The drug is tested on Clostridium symbiosum strain: ATCC14940 for biotransformation. The drug concentrations were measured before and after a 12-h incubation by liquid-chromatography-coupled mass spectrometry (LC–MS); settings: 2 µM
[14] = The drug is tested on Ruminococcus gnavus strain: ATCC29149 for biotransformation. The drug concentrations were measured before and after a 12-h incubation by liquid-chromatography-coupled mass spectrometry (LC–MS); settings: mediterraneibacter gnavus, 2 µM
[15] = bacteroides intestinalis, 12 h, 2 µM
Description: The drug is tested on Bacteroides intestinalis strain: DSM17393 for biotransformation. The drug concentrations were measured before and after a 12-h incubation by liquid-chromatography-coupled mass spectrometry (LC–MS)

[16] = The drug is tested on Bacteroides xylanisolvens strain: DSM18836 for biotransformation. The drug concentrations were measured before and after a 12-h incubation by liquid-chromatography-coupled mass spectrometry (LC–MS); settings: 2 µM
[17] = The drug is tested on Bifidobacterium longum subsp. Infantis strain: CCUG52486 for biotransformation. The drug concentrations were measured before and after a 12-h incubation by liquid-chromatography-coupled mass spectrometry (LC–MS); settings: 2 µM
[18] = enterocloster bolteae, 12 h, 2 µM
Description: The drug is tested on Clostridium bolteae strain: ATCCBAA-613 for biotransformation. The drug concentrations were measured before and after a 12-h incubation by liquid-chromatography-coupled mass spectrometry (LC–MS)

[19] = bacteroides fragilis, 12 h, 2 µM; remark: listed apart in the source
Description: The drug is tested on Bacteroides fragilis strain: 3397 (T10) for biotransformation. The drug concentrations were measured before and after a 12-h incubation by liquid-chromatography-coupled mass spectrometry (LC–MS)

[20] = The drug is tested on Bifidobacterium breve strain: DSM20213 for biotransformation. The drug concentrations were measured before and after a 12-h incubation by liquid-chromatography-coupled mass spectrometry (LC–MS); settings: 2 µM

Row | SMILES | Bacterial Biotransformation [1] | Bacterial Biotransformation [2] | Bacterial Biotransformation [3] | Bacterial Biotransformation [4] | Bacterial Biotransformation [5] | Bacterial Biotransformation [6] | Bacterial Biotransformation [7] | Bacterial Biotransformation [8] | Bacterial Biotransformation [9] | Bacterial Biotransformation [10] | Bacterial Biotransformation [11] | Bacterial Biotransformation [12] | Bacterial Biotransformation [13] | Bacterial Biotransformation [14] | Bacterial Biotransformation [15] | Bacterial Biotransformation [16] | Bacterial Biotransformation [17] | Bacterial Biotransformation [18] | Bacterial Biotransformation [19] | Bacterial Biotransformation [20]
1 | COc1cc2nc(N(C)CCCNC(=O)C3CCCO3)nc(N)c2cc1OC (stereo not given) [ALFUZOSIN] | Compound NOT metabolized | Compound NOT metabolized | Compound NOT metabolized | Compound NOT metabolized | Compound NOT metabolized | Compound NOT metabolized | Compound NOT metabolized | Compound NOT metabolized | Compound NOT metabolized | Compound NOT metabolized | Compound NOT metabolized | Compound NOT metabolized | Compound NOT metabolized | Compound NOT metabolized | Compound NOT metabolized | Compound NOT metabolized | Compound NOT metabolized | Compound NOT metabolized | – | –
2 | CC(=O)OCC(=O)[C@@]1(O)[C@@H](C)C[C@H]2[C@@H]3CCC4=CC(=O)C=C[C@]4(C)[C@@]3(F)[C@@H](O)C[C@@]21C [BETAMETHASONE ACETATE] | – | Compound NOT metabolized | Compound metabolized | Compound NOT metabolized | Compound NOT metabolized | Compound metabolized | Compound NOT metabolized | Compound NOT metabolized | – | Compound NOT metabolized | Compound metabolized | Compound NOT metabolized | Compound NOT metabolized | Compound NOT metabolized | – | – | Compound NOT metabolized | Compound NOT metabolized | Compound metabolized | –
3 | O=C(NCc1ccccc1)OCCO [BURAMATE] | Compound NOT metabolized | Compound NOT metabolized | Compound NOT metabolized | Compound NOT metabolized | Compound NOT metabolized | Compound NOT metabolized | Compound NOT metabolized | Compound NOT metabolized | – | Compound NOT metabolized | Compound NOT metabolized | Compound NOT metabolized | Compound NOT metabolized | Compound NOT metabolized | Compound NOT metabolized | Compound NOT metabolized | Compound NOT metabolized | Compound NOT metabolized | Compound NOT metabolized | –
4 | COC1=CC(=O)C[C@@H](C)[C@]12Oc1c(Cl)c(OC)cc(OC)c1C2=O [GRISEOFULVIN] | Compound NOT metabolized | Compound NOT metabolized | Compound metabolized | Compound NOT metabolized | Compound NOT metabolized | Compound metabolized | Compound NOT metabolized | Compound NOT metabolized | – | Compound NOT metabolized | Compound metabolized | Compound NOT metabolized | Compound NOT metabolized | Compound metabolized | – | Compound metabolized | Compound NOT metabolized | Compound NOT metabolized | Compound metabolized | –
5 | N=C(N)NC(=O)Cc1c(Cl)cccc1Cl [GUANFACINE] | Compound NOT metabolized | Compound NOT metabolized | Compound NOT metabolized | Compound NOT metabolized | Compound NOT metabolized | Compound NOT metabolized | – | Compound NOT metabolized | Compound NOT metabolized | – | Compound NOT metabolized | Compound NOT metabolized | Compound NOT metabolized | Compound NOT metabolized | Compound NOT metabolized | Compound NOT metabolized | Compound NOT metabolized | Compound NOT metabolized | Compound NOT metabolized | –
6 | CCCCC1=NC2(CCCC2)C(=O)N1Cc1ccc(-c2ccccc2-c2nnn[nH]2)cc1 [IRBESARTAN] | Compound metabolized | Compound metabolized | Compound metabolized | Compound metabolized | Compound metabolized | Compound metabolized | Compound NOT metabolized | Compound metabolized | Compound metabolized | Compound NOT metabolized | Compound metabolized | Compound NOT metabolized | Compound metabolized | Compound NOT metabolized | Compound metabolized | Compound metabolized | Compound metabolized | Compound metabolized | – | –
7 | CN(CCOc1ccc(CC2SC(=O)NC2=O)cc1)c1ccccn1.O=C(O)/C=C\C(=O)O (stereo not given) [ROSIGLITAZONE MALEATE] | Compound NOT metabolized | Compound NOT metabolized | Compound NOT metabolized | Compound NOT metabolized | Compound NOT metabolized | – | Compound NOT metabolized | Compound NOT metabolized | Compound NOT metabolized | Compound NOT metabolized | Compound NOT metabolized | Compound NOT metabolized | Compound NOT metabolized | Compound NOT metabolized | Compound NOT metabolized | Compound NOT metabolized | Compound NOT metabolized | Compound NOT metabolized | Compound NOT metabolized | Compound NOT metabolized
8 | CC(C)(C)NC[C@H](O)COc1nsnc1N1CCOCC1.O=C(O)/C=C\C(=O)O [TIMOLOL MALEATE] | Compound NOT metabolized | Compound NOT metabolized | Compound NOT metabolized | Compound NOT metabolized | Compound NOT metabolized | – | Compound NOT metabolized | Compound NOT metabolized | Compound NOT metabolized | Compound NOT metabolized | Compound NOT metabolized | Compound NOT metabolized | Compound NOT metabolized | Compound NOT metabolized | Compound NOT metabolized | Compound NOT metabolized | Compound NOT metabolized | Compound NOT metabolized | Compound NOT metabolized | Compound NOT metabolized
9 | COc1ccc(CN2CCNCC2)c(OC)c1OC.Cl.Cl [TRIMETAZIDINE DIHYDROCHLORIDE] | Compound NOT metabolized | Compound NOT metabolized | Compound NOT metabolized | Compound NOT metabolized | Compound metabolized | – | Compound NOT metabolized | Compound NOT metabolized | Compound NOT metabolized | Compound metabolized | Compound metabolized | Compound NOT metabolized | Compound NOT metabolized | Compound NOT metabolized | Compound metabolized | Compound metabolized | Compound metabolized | Compound NOT metabolized | Compound metabolized | Compound NOT metabolized
